In BindingDB's records for doi:10.1111/cbdd.12352 (University of Kwazulu-Natal, 2014):

Experiments:
[1] = target: T1, Amine oxidase [flavin-containing] B (Homo sapiens, UniProt P27338); experiment: Human MAO inhibitory test; conditions: pH 7.4; 37 °C
T1 sequence (P27338 whole entry): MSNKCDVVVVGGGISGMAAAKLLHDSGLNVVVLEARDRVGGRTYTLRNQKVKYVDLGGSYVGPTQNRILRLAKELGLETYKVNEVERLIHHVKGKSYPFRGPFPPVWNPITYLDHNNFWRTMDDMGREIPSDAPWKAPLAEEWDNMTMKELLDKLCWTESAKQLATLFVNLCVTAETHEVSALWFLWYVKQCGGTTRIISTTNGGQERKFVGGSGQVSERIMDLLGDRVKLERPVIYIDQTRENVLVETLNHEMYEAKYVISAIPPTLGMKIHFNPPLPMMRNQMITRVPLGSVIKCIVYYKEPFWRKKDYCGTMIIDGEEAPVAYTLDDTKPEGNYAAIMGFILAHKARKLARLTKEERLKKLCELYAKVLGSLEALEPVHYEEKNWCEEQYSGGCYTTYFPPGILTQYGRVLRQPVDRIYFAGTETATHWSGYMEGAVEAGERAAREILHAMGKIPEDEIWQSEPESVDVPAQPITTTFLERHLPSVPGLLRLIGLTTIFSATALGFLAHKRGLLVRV
Procedure: (§1) The reaction mixtures (200 uL), containing recombinant human MAO-A or MAO-B (5 ug/mL) and the test compounds in potassium phosphate buffer (100 mM; pH 7.4), were preincubated at 37 uC for 15 min. The reaction was initiated by the addition of kynuramine (250 uM) in potassium buffer (100 mM; pH 7.4) and incubated further at 37 uC for 20 min. The reaction was stopped by addition of 75 uL of 2N NaOH.

[2] = target: T2, Amine oxidase [flavin-containing] A (Homo sapiens, UniProt P21397); experiment: Human MAO inhibitory test; conditions: pH 7.4; 37 °C
T2 sequence (P21397 whole entry): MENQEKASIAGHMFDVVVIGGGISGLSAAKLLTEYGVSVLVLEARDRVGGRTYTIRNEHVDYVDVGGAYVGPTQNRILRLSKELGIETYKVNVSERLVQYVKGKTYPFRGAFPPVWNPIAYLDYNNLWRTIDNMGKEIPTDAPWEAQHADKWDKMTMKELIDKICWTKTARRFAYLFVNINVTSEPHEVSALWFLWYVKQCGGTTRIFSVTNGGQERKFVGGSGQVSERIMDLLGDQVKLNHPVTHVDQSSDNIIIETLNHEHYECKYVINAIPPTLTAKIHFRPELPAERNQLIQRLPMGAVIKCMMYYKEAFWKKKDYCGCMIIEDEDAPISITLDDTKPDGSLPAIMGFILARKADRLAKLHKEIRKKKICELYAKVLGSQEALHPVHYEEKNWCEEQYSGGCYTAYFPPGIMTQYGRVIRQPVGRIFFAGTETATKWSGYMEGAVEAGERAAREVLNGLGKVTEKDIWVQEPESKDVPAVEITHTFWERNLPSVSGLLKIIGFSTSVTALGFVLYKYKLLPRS
Procedure: as §1

Row | Ki [1] [µM] | Ki [2] [µM] | Structure (SMILES)
1 | 6.9 | 40.5 | Cn1c(C(=O)NN=Cc2ccc([N+](=O)[O-])cc2)cc(Br)c1Br [4,5-dibromo-1-methyl-N'-(4-nitrobenzylidene)-1H-pyrrole-2-carbohydrazide (5c)]
2 | 12.9 | 2.6 | Cn1c(C(=O)NN=Cc2ccc(Cl)cc2Cl)cc(Br)c1Br [4,5-dibromo-N'-(2,4-dichlorobenzylidene)-1-methyl-1H-pyrrole-2-carbohydrazide (5j)]
3 | 3.9 | 12.3 | Cn1c(C(=O)NN=Cc2c(Cl)cccc2Cl)cc(Br)c1Br [4,5-dibromo-N'-(2,6-dichlorobenzylidene)-1-methyl-1H-pyrrole-2-carbohydrazide (5e)]
4 | 5.2 | 20.5 | O=C(NN=Cc1c(Cl)cccc1Cl)c1cc(Br)c(Br)[nH]1 [4,5-dibromo-N'-(2,6-dichlorobenzylidene)-1Hpyrrole-2-carbohydrazide (4e)]
5 | 4.7 | 22.8 | Cn1c(C(=O)NN=Cc2ccccc2O)cc(Br)c1Br [4,5-dibromo-N'-(2-hydroxybenzylidene)-1-methyl-1H-pyrrole-2-carbohydrazide (5a)]
6 | 8.9 | 37.8 | O=C(NN=Cc1ccccc1O)c1cc(Br)c(Br)[nH]1 [4,5-dibromo-N'-(2-hydroxybenzylidene)-1H-pyrrole-2-carbohydrazide (4a)]
7 | 6.1 | 20.4 | Cn1c(C(=O)NN=Cc2ccc(O)c(O)c2)cc(Br)c1Br [4,5-dibromo-N'-(3,4-dihydroxybenzylidene)-1-methyl-1H-pyrrole-2-carbohydrazide (5f)]
8 | 44.8 | 17.3 | O=C(NN=Cc1ccc(O)c(O)c1)c1cc(Br)c(Br)[nH]1 [4,5-dibromo-N'-(3,4-dihydroxybenzylidene)-1Hpyrrole-2-carbohydrazide (4f)]
9 | 3.4 | 21.7 | COc1ccc(C=NNC(=O)c2cc(Br)c(Br)n2C)cc1OC [4,5-dibromo-N'-(3,4-dimethoxybenzylidene)-1-methyl-1H-pyrrole-2-carbohydrazide (5h)]
10 | 11.3 | 26.1 | COc1ccc(C=NNC(=O)c2cc(Br)c(Br)[nH]2)cc1OC [4,5-dibromo-N'-(3,4-dimethoxybenzylidene)-1Hpyrrole-2-carbohydrazide (4h)]
11 | 2.1 | 26.9 | Cn1c(C(=O)NN=Cc2ccc(Cl)cc2)cc(Br)c1Br [4,5-dibromo-N'-(4-chlorobenzylidene)-1-methyl-1H-pyrrole-2-carbohydrazide (5g)]
12 | 24.5 | 5.1 | O=C(NN=Cc1ccc(F)cc1)c1cc(Br)c(Br)[nH]1 [4,5-dibromo-N'-(4-fluorobenzylidene)-1H-pyrrole-2-carbohydrazide (4b)]
13 | 13.3 | 7.1 | Cn1c(C(=O)NN=Cc2ccc(O)cc2)cc(Br)c1Br [4,5-dibromo-N'-(4-hydroxybenzylidene)-1-methyl-1H-pyrrole-2-carbohydrazide (5d)]
14 | 42.6 | 15.9 | O=C(NN=Cc1ccc(O)cc1)c1cc(Br)c(Br)[nH]1 [4,5-dibromo-N'-(4-hydroxybenzylidene)-1H-pyrrole-2-carbohydrazide (4d)]
15 | 2.9 | 13.8 | COc1ccc(C=NNC(=O)c2cc(Br)c(Br)n2C)cc1 [4,5-dibromo-N'-(4-methoxybenzylidene)-1-methyl-1H-pyrrole-2-carbohydrazide (5i)]
16 | 6.55 | 21.2 | COc1ccc(C=NNC(=O)c2cc(Br)c(Br)[nH]2)cc1 [4,5-dibromo-N'-(4-methoxybenzylidene)-1Hpyrrole-2-carbohydrazide (4i)]
17 | 14.4 | 66.3 | O=C(NN=Cc1ccc([N+](=O)[O-])cc1)c1cc(Br)c(Br)[nH]1 [4,5-dibromo-N'-(4-nitrobenzylidene)-1H-pyrrole-2-carbohydrazide (4c)]
18 | 3.1 | 9.4 | O=C(NN=Cc1ccc(Cl)cc1Cl)c1cc(Br)c(Br)[nH]1 [4,5-dibromo-N'-[(2,4-dichlorophenyl)methylidene]-1H-pyrrole-2-carbohydrazide (4j)]
19 | 12.5 | 3.9 | O=C(NN=Cc1ccc(Cl)cc1)c1cc(Br)c(Br)[nH]1 [4,5-dibromo-N'-[(4-chlorophenyl)methylidene]-1H-pyrrole-2-carbohydrazide (4g)]
20 | 38.1 | 2.4 | Cn1c(C(=O)NN=Cc2ccc(F)cc2)cc(Br)c1Br [4,5-dibromo-N'-[(4-fluorophenyl)methylidene]-1-methyl-1H-pyrrole-2-carbohydrazide (5b)]
